From patent US12570642B2, “GLP-IR modulating compounds” (Gilead Sciences, Inc., priority 2021, dated 2026)

Biological target: GLP-1R (Homo sapiens, UniProt P43220)
Experiment: GLP-1R Activation - cAMP Assay
Assay type: cell-based
Settings: cAMP increase in CHO cells stably expressing GLP-1R; each compound run on one of the two cAMP assays (Assay 1 or Assay 2, not specified)
Description: GLP-1R Activation—cAMP Assay 1
GLP-1R activation by compounds of the present disclosure were quantified by measuring cAMP increase in CHO cells stably expressing GLP-1R (MultiSpan product #C1267-1a). The cells were harvested and plated in growth medium (DMEM/F-12 (Corning product #10-090-CV) supplemented with 10% FBS (HyClone product #SH30071-03), penicillin/streptomycin (Corning product #30-002CI) and 10 μg/ml puromycin (Gibco product #A11138-03)) at 1,000 cells/well in a 384-well plate (Greiner product #781080). The cells were then incubated overnight at 37° C., 5% CO2. The next day, the medium was removed and the cells were washed with DPBS (Corning product #21-031-CM) before adding the assay medium (HBSS, Corning product #21-023-CV) with 20 mM Hepes (Gibco product #15630-080) and 0.1% BSA (Rockland Immunochemicals product #BSA-1000)). Following the medium change, the cells were incubated for 1 hour at 37° C., 5% CO2. The tested GLP-1 compound was added to the cells in a 10-point dose response followed by a 30 minutes incubation at 37° C., 5% CO2. cAMP concentration increase was then detected using Cisbio's cAMP Gs Dynamic Kit (product #62AM4PEC) according to the manufacturer's protocol. The response was plotted against the log of the agonist concentration and fitted to a sigmoidal equation to determine the EC50.

Sequence of GLP-1R (P43220 24-463): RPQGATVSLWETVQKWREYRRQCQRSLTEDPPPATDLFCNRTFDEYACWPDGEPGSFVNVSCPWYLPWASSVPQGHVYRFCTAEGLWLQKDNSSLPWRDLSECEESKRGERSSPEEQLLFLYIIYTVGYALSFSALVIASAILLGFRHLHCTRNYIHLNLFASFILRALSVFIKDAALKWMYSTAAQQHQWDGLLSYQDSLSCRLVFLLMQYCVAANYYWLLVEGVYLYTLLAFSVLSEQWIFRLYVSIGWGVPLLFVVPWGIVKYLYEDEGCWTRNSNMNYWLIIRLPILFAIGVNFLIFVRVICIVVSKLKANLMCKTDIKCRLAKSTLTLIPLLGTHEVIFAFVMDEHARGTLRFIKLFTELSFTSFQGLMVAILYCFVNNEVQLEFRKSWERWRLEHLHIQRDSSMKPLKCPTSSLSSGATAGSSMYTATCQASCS

Row | EC50 [nM] | SMILES
1 | 0.015 | CC1(C)COC[C@H]1n1c(Cc2ccc(-c3ccc(F)c(OCc4cnc(-n5ccnn5)cc4Cl)n3)cc2F)nc2ccc(C(=O)O)cc21 [Example 161, (S)-2-(4-(6-((4-chloro-6-(1H-1,2,3-triazol-1-yl)pyridin-3-yl)methoxy)-5-fluoropyridin-2-yl)-2-fluorobenzyl)-1-(4,4-dimethyltetrahydrofuran-3-yl)-1H-benzo[d]imidazole-6-carboxylic Acid]
2 | 1.18 | CO[C@H](C)Cn1c(Cc2cc(F)c(-c3cccc(OCc4cc(F)c(Cl)cc4F)n3)cc2F)nc2c(F)cc(C(=O)O)cc21 [Example 353, (R)-2-(4-(6-((4-chloro-2,5-difluorobenzyl)oxy)pyridin-2-yl)-2,5-difluorobenzyl)-4-fluoro-1-(2-methoxypropyl)-1H-benzo[d]imidazole-6-carboxylic acid]
3 | 0.124 | CC1(C)COC[C@H]1n1c(Cc2cc(F)c(-c3cccc(OCc4ccc(C(F)(F)F)cc4)n3)cc2F)nc2ccc(C(=O)O)cc21 [Example 358, (S)-2-(2,5-difluoro-4-(6-((4-(trifluoromethyl)benzyl)oxy)pyridin-2-yl)benzyl)-1-(4,4-dimethyltetrahydrofuran-3-yl)-1H-benzo[d]imidazole-6-carboxylic acid]
4 | 0.13 | CC1(C)COCC1n1c(Cc2cc(F)c(-c3cccc(OCc4ccc(Cl)nc4)n3)cc2F)nc2ccc(C(=O)O)cc21 (stereo not shown) [Example 92]
5 | 0.217 | CC1(C)COC[C@H]1n1c(Cc2cc(F)c(-c3ccc(F)c(OCc4ccc(Cl)cc4Cl)n3)cc2F)nc2ccc(C(=O)O)cc21 [Example 398, (S)-2-(4-(6-((2,4-dichlorobenzyl)oxy)-5-fluoropyridin-2-yl)-2,5-difluorobenzyl)-1-(4,4-dimethyltetrahydrofuran-3-yl)-1H-benzo[d]imidazole-6-carboxylic acid]
6 | 0.129 | CC1(C)COC[C@H]1n1c(Cc2cc(F)c(-c3cccc(OCc4ccc(-n5ccnn5)cc4)n3)cc2F)nc2ccc(C(=O)O)cc21 [Example 183, (S)-2-(4-(6-((4-(1H-1,2,3-triazol-1-yl)benzyl)oxy)pyridin-2-yl)-2,5-difluorobenzyl)-1-(4,4-dimethyltetrahydrofuran-3-yl)-1H-benzo[d]imidazole-6-carboxylic Acid]
7 | 0.024 | COC[C@@]1(C)COCC1n1c(Cc2cc(F)c(-c3cccc(OCc4ccc(Cl)cc4F)n3)cc2F)nc2ccc(C(=O)O)cc21 (single isomer, unassigned) [Example 547]
8 | 0.118 | COC[C@H]1COC[C@H]1n1c(Cc2cc(F)c(-c3cccc(OCc4ccc(C#N)cc4)n3)cc2F)nc2ccc(C(=O)O)cc21 [Example 468, 2-(4-(6-((4-cyanobenzyl)oxy)pyridin-2-yl)-2,5-difluorobenzyl)-1-((3S,4S)-4-(methoxymethyl)tetrahydrofuran-3-yl)-1H-benzo[d]imidazole-6-carboxylic acid]
9 | 0.942 | N#Cc1ccc(COc2cccc(-c3cc(F)c(Cc4nc5ccc(C(=O)O)cc5n4CC4(C5CC5)CCCO4)cc3F)n2)c(F)c1 (stereo not shown) [Example 273, 2-(4-(6-((4-cyano-2-fluorobenzyl)oxy)pyridin-2-yl)-2,5-difluorobenzyl)-1-((2-cyclopropyltetrahydrofuran-2-yl)methyl)-1H-benzo[d]imidazole-6-carboxylic acid]
10 | 0.558 | CC(C)OCCn1c(Cc2cc(F)c(-c3cccc(OCc4cnc(-n5ccnn5)cc4Cl)n3)cc2F)nc2ccc(C(=O)O)cc21 [Example 561, 2-(4-(6-((4-chloro-6-(1H-1,2,3-triazol-1-yl)pyridin-3-yl)methoxy)pyridin-2-yl)-2,5-difluorobenzyl)-1-(2-isopropoxyethyl)-1H-benzo[d]imidazole-6-carboxylic acid]
11 | 0.067 | Cc1cc(Cc2nc3c(F)cc(C(=O)O)cc3n2[C@@H]2COCC2(C)C)c(Cl)cc1-c1ccc(F)c(OCc2ccc(Cl)cc2F)n1 [Example 334, (S)-2-(2-chloro-4-(6-((4-chloro-2-fluorobenzyl)oxy)-5-fluoropyridin-2-yl)-5-methylbenzyl)-1-(4,4-dimethyltetrahydrofuran-3-yl)-4-fluoro-1H-benzo[d]imidazole-6-carboxylic acid]
12 | 0.191 | CC1(C)COC[C@H]1n1c(Cc2cc(F)c(-c3cccc(OCc4ccc(C#N)c(F)c4F)n3)cc2F)nc2ccc(C(=O)O)cc21 [Example 492, (S)-2-(4-(6-((4-cyano-2,3-difluorobenzyl)oxy)pyridin-2-yl)-2,5-difluorobenzyl)-1-(4,4-dimethyltetrahydrofuran-3-yl)-1H-benzo[d]imidazole-6-carboxylic acid]
13 | 0.604 | COCCn1c(Cc2cc(F)c(-c3cccc(OCc4ccc(C#N)cc4)n3)cc2F)nc2c(F)cc(C(=O)O)cc21 [Example 382, 2-(4-(6-((4-cyanobenzyl)oxy)pyridin-2-yl)-2,5-difluorobenzyl)-4-fluoro-1-(2-methoxyethyl)-1H-benzo[d]imidazole-6-carboxylic acid]
14 | 0.294 | CC1(C)COC[C@H]1n1c(Cc2ccc(-c3cccc(OCc4ccc(C#N)cc4)n3)cc2F)nc2ccc(C(=O)O)cc21 [Example 373, (S)-2-(4-(6-((4-cyanobenzyl)oxy)pyridin-2-yl)-2-fluorobenzyl)-1-(4,4-dimethyltetrahydrofuran-3-yl)-1H-benzo[d]imidazole-6-carboxylic acid]
15 | 0.024 | CS(=O)(=O)N1Cc2ccc(COc3cccc(-c4cc(F)c(Cc5nc6c(F)cc(C(=O)O)cc6n5C[C@@H]5CCO5)cc4F)n3)cc2C1 [Example 517, (S)-2-(2,5-difluoro-4-(6-((2-(methylsulfonyl)isoindolin-5-yl)methoxy)pyridin-2-yl)benzyl)-4-fluoro-1-(oxetan-2-ylmethyl)-1H-benzo[d]imidazole-6-carboxylic acid]
16 | 1.23 | COCCn1c(Cc2cc(F)c(-c3cccc(OCc4ccc(-c5cccnc5)cc4F)n3)cc2F)nc2ccc(C(=O)O)cc21 [Example 103, 2-(2,5-difluoro-4-(6-((2-fluoro-4-(pyridin-3-yl)benzyl)oxy)pyridin-2-yl)benzyl)-1-(2-methoxyethyl)-1H-benzo[d]imidazole-6-carboxylic Acid]
17 | 12.9 | N#Cc1ccc(COc2cccc(-c3cc(F)c(Cc4nc5ccc(C(=O)O)cc5n4C45COC(C4)C5)cc3F)n2)c(F)c1 [Example 66, 1-(2-oxabicyclo[2.1.1]hexan-4-yl)-2-(4-(6-((4-cyano-2-fluorobenzyl)oxy)pyridin-2-yl)-2,5-difluorobenzyl)-1H-benzo[d]imidazole-6-carboxylic Acid]
18 | 3.43 | COCCn1c(Cc2cc(F)c(-c3cccc(OCc4ccc(OC(F)(F)F)cc4)n3)cc2F)nc2ccc(C(=O)O)cc21 [Example 32, 2-(2,5-difluoro-4-(6-((4-(trifluoromethoxy)benzyl)oxy)pyridin-2-yl)benzyl)-1-(2-methoxyethyl)-1H-benzo[d]imidazole-6-carboxylic Acid]
19 | 0.321 | COCCn1c(Cc2c(F)cc(-c3cccc(OCc4ccc(C#N)cc4)n3)c(F)c2F)nc2c(F)cc(C(=O)O)cc21 [Example 378, 2-(4-(6-((4-cyanobenzyl)oxy)pyridin-2-yl)-2,3,6-trifluorobenzyl)-4-fluoro-1-(2-methoxyethyl)-1H-benzo[d]imidazole-6-carboxylic acid]
20 | 0.047 | CC1(C)COC[C@H]1n1c(Cc2cc(F)c(-c3cccc(OCc4cnc(-n5ccnn5)cc4Cl)n3)cc2F)nc2c(Cl)cc(C(=O)O)cc21 [Example 528, (S)-4-chloro-2-(4-(6-((4-chloro-6-(1H-1,2,3-triazol-1-yl)pyridin-3-yl)methoxy)pyridin-2-yl)-2,5-difluorobenzyl)-1-(4,4-dimethyltetrahydrofuran-3-yl)-1H-benzo[d]imidazole-6-carboxylic acid]
21 | 0.6 | N#Cc1ccc(COc2cccc(-c3cc(F)c(Cc4nc5ccc(C(=O)O)cc5n4[C@@H]4CO[C@H]5OCC[C@H]54)cc3F)n2)c(F)c1 [Example 19]
22 | 0.652 | CC1(C)COC[C@H]1n1c(Cc2cc(F)c(-c3cccc(OCc4ccc(Cl)c(Cl)c4)n3)cc2F)nc2ccc(C(=O)O)cc21 [Example 393, (S)-2-(4-(6-((3,4-dichlorobenzyl)oxy)pyridin-2-yl)-2,5-difluorobenzyl)-1-(4,4-dimethyltetrahydrofuran-3-yl)-1H-benzo[d]imidazole-6-carboxylic acid]
23 | 13.8 | N#Cc1ccc(COc2cccc(-c3cc(F)c(Cc4nc5ccc(C(=O)O)cc5n4C45COCC4C5)cc3F)n2)c(F)c1 (stereo not shown) [Example 69, 1-(3-oxabicyclo[3.1.0]hexan-1-yl)-2-(4-(6-((4-cyano-2-fluorobenzyl)oxy)pyridin-2-yl)-2,5-difluorobenzyl)-1H-benzo[d]imidazole-6-carboxylic Acid]
24 | 0.089 | CC1(C)COC[C@H]1n1c(Cc2cc(F)c(-c3cccc(OCc4ccc(Cl)cc4)n3)cc2F)nc2ccc(C(=O)O)cc21 (single isomer, unassigned) [Example 385A]
25 | 0.379 | Cc1c(-c2cccc(OCc3ccc(C#N)cc3F)n2)ccc(Cc2nc3ccc(C(=O)O)cc3n2C[C@@H]2CCO2)c1F [Example 146, (S)-2-(4-(6-((4-cyano-2-fluorobenzyl)oxy)pyridin-2-yl)-2-fluoro-3-methylbenzyl)-1-(oxetan-2-ylmethyl)-1H-benzo[d]imidazole-6-carboxylic Acid]
